{
  "source": "paper PMC10823477",
  "about": "(Journal of Medicinal Chemistry, 2023)",
  "key": {"[1]": {"biological_target": "5-HT2A receptor (Mus musculus, UniProt P35363)", "sequence (P35363 whole entry)": "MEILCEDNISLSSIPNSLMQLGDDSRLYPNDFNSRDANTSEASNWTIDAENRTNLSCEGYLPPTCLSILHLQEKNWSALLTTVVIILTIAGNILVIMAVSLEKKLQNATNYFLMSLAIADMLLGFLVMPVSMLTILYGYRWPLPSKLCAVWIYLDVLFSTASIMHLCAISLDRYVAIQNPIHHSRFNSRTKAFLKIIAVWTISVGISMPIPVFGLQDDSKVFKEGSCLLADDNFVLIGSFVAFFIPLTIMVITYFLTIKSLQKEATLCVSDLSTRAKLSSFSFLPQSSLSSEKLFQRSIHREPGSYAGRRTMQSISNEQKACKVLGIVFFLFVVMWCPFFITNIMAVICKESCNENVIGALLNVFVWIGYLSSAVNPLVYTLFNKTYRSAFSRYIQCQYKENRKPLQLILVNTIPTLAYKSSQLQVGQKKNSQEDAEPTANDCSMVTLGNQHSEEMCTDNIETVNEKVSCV", "experiment": "head-twitch response", "format": "in vivo, C57BL/6 mice", "details": "mice, 1 mg/kg p.o.; for HTR induction, result in words: 15–30 min window"}, "[2]": {"test_system": "mice subjected to a Mild Chronic Stress Paradigm (MCSP)", "experiment": "marble-burying test", "format": "in vivo, C57BL/6 mice", "details": "for marble-burying behavior in stressed mice, 1 day postdose, in words / marble-burying behavior in stressed mice, up to 7 days, in words: MCSP mice, single p.o. dose, psilocybin 1 mg/kg, NPDs 10 mg/kg"}, "[3]": {"experiment": "plasma pharmacokinetics of psilocin and parent prodrug in healthy mice", "details": "for psilocin AUC(0–tlast) relative to ES02: 10 mg/kg p.o., within first 8 h; for time up to which parent derivative is detected systemically postdose: plasma parent prodrug"}, "[4]": {"details": "human participants, 25 mg psilocybin; cited from earlier work"}, "[5]": {"details": "humans; cited from earlier work"}},
  "note": "“Also recorded” adds a separate entry of the source.",
  "data": [
    {"smiles": "CN(C)CCc1cn(C(=O)OCc2ccccc2)c2cccc(OC(=O)OCc3ccccc3)c12", "note": "[C01, Benzyl 4-(((Benzyloxy)carbonyl)oxy)-3-(2-(dimethylamino)ethyl)-1H-indole-1-carboxylate]", "values": [
      {"measurement": "HTR induction, result in words", "setting": "[1]", "result": "ineffective in inducing HTR"}
    ]},
    {"smiles": "CN(C)CCc1c[nH]c2cccc(OC(=O)OCc3ccccc3)c12", "note": "[C02, Benzyl (3-(2-(Dimethylamino)ethyl)-1H-indol-4-yl) Carbonate]", "values": [
      {"measurement": "HTR induction, result in words", "setting": "[1]", "result": "statistically significant psychomimetic effects in healthy mice"}
    ]},
    {"smiles": "CN(C)CCc1c[nH]c2cccc(OC(=O)OCC3CC3)c12", "note": "[C03, Cyclopropylmethyl (3-(2-(Dimethylamino)ethyl)-1H-indol-4-yl) Carbonate]", "values": [
      {"measurement": "HTR induction, result in words", "setting": "[1]", "result": "appeared not to induce a notable hallucinogenic effect"}
    ]},
    {"smiles": "CCCC(=O)OCOc1cccc2[nH]cc(CCN(C)C)c12", "note": "[EE01, ((3-(2-(Dimethylamino)ethyl)-1H-indol-4-yl)oxy)methyl Butyrate]", "values": [
      {"measurement": "HTR induction, result in words", "setting": "[1]", "result": "appeared not to induce a notable hallucinogenic effect"}
    ]},
    {"smiles": "COc1ccc(C(=O)Oc2cccc3[nH]cc(CCN(C)C)c23)cc1", "note": "[ES01, 3-(2-(Dimethylamino)ethyl)-1H-indol-4-yl 4-Methoxybenzoate]", "values": [
      {"measurement": "HTR induction, result in words", "setting": "[1]; 1 mg/kg", "result": "induced HTR at an intensity statistically equivalent to the natural psychedelic compound; also recorded: produced HTR responses equivalent to psilocybin"},
      {"measurement": "marble-burying behavior in stressed mice, 1 day postdose, in words", "setting": "[2]", "result": "significant reduction in marble-burying behavior"},
      {"measurement": "marble-burying behavior in stressed mice, up to 7 days, in words", "setting": "[2]", "result": "completely rescuing the elevated anxiety-like condition to the innate behavioral state up to 7 days after treatment"},
      {"measurement": "psilocin AUC(0–tlast) relative to ES02", "setting": "[3]", "result": "greater than twice that of ES02"}
    ]},
    {"smiles": "CN(C)CCc1c[nH]c2cccc(OC(=O)CC3CC3)c12", "note": "[ES02, 3-(2-(Dimethylamino)ethyl)-1H-indol-4-yl 2-cyclopropylacetate]", "values": [
      {"measurement": "HTR induction, result in words", "setting": "[1]", "result": "induced HTR at an intensity statistically equivalent to the natural psychedelic compound"},
      {"measurement": "marble-burying behavior in stressed mice, 1 day postdose, in words", "setting": "[2]", "result": "significant reduction in marble-burying behavior"}
    ]},
    {"smiles": "CN(C)CCc1c[nH]c2cccc(OC(=O)c3c(F)c(F)c(F)c(F)c3F)c12", "note": "[ES03, 3-(2-(Dimethylamino)ethyl)-1H-indol-4-yl 2,3,4,5,6-pentafluorobenzoate]", "values": [
      {"measurement": "HTR induction, result in words", "setting": "[1]; 1 mg/kg", "result": "induced HTR at an intensity statistically equivalent to the natural psychedelic compound; also recorded: produced HTR responses equivalent to psilocybin"}
    ]},
    {"smiles": "CN(C)CCc1c[nH]c2cccc(OC(=O)c3cccc4c3OCCO4)c12", "note": "[ES04, 3-(2-(Dimethylamino)ethyl)-1H-indol-4-yl 2,3-dihydrobenzo[b][1,4]dioxine-5-carboxylate]", "values": [
      {"measurement": "HTR induction, result in words", "setting": "[1]", "result": "appeared not to induce a notable hallucinogenic effect"}
    ]},
    {"smiles": "CN(C)CCc1c[nH]c2cccc(OP(=O)(O)O)c12", "note": "[PCB, psilocybin, reference compound]", "values": [
      {"measurement": "duration of statistically enhanced HTR relative to vehicle", "setting": "[1]", "result": "up to 90 min"},
      {"measurement": "observation window of peak HTR intensity", "setting": "[1]", "result": "15 to 30", "unit": "min"},
      {"measurement": "marble-burying behavior in stressed mice, 1 day postdose, in words", "setting": "[2]", "result": "significantly reduced number of buried marbles"},
      {"measurement": "marble-burying behavior in stressed mice, up to 7 days, in words", "setting": "[2]", "result": "long-term benefits lasting up to 7 days post-treatment"},
      {"measurement": "effect on innate burying behavior in nonstressed mice", "setting": "[2]; nonstressed mice, 1 mg/kg p.o.", "result": "no significant effect on the innate burying behavior in nonstressed mice"},
      {"measurement": "duration of systemic psilocin exposure postadministration", "setting": "[4]", "result": "up to 24 h"},
      {"measurement": "time of peak plasma psilocin level", "setting": "[4]", "result": 2, "unit": "h"},
      {"measurement": "duration of psychedelic episode from time of dosing", "setting": "[5]", "result": "up to 6 h"}
    ]},
    {"smiles": "CN(C)CCc1c[nH]c2cccc(O[Si](C)(C)C(C)(C)C)c12", "note": "[SE01, 2-(4-((tert-Butyldimethylsilyl)oxy)-1H-indol-3-yl)-N,N-dimethylethanamine]", "values": [
      {"measurement": "HTR induction, result in words", "setting": "[1]", "result": "induced notable HTR"},
      {"measurement": "time up to which parent derivative is detected systemically postdose", "setting": "[3]", "result": "up to 8 h"}
    ]},
    {"smiles": "CC(C)[Si](Oc1cccc2[nH]cc(CCN(C)C)c12)(C(C)C)C(C)C", "note": "[SE02, N,N-Dimethyl-2-(4-((triisopropylsilyl)oxy)-1H-indol-3-yl)ethanamine]", "values": [
      {"measurement": "HTR induction, result in words", "setting": "[1]", "result": "induced notable HTR"},
      {"measurement": "time up to which parent derivative is detected systemically postdose", "setting": "[3]", "result": "up to 8 h"}
    ]},
    {"smiles": "CN(C)CCc1c[nH]c2cccc(OC(=O)SCc3ccccc3)c12", "note": "[T01, S-Benzyl O-(3-(2-(Dimethylamino)ethyl)-1H-indol-4-yl) Carbonothioate]", "values": [
      {"measurement": "HTR induction, result in words", "setting": "[1]; 1 mg/kg", "result": "induced notable HTR; also recorded: statistically significant psychomimetic effects in healthy mice"},
      {"measurement": "marble-burying behavior in stressed mice, 1 day postdose, in words", "setting": "[2]", "result": "significant reduction in marble-burying behavior"},
      {"measurement": "marble-burying behavior in stressed mice, up to 7 days, in words", "setting": "[2]", "result": "completely rescuing the elevated anxiety-like condition to the innate behavioral state up to 7 days after treatment"},
      {"measurement": "psilocin (Cmax) produced relative to psilocybin", "setting": "[3]; 1 mg/kg i.v., 1 mg/kg", "result": "three to five times greater than psilocybin; also recorded: approximately four times greater psilocin relative to the natural prodrug"},
      {"measurement": "psilocin AUC(0–tlast) relative to ES02", "setting": "[3]", "result": "greater than twice that of ES02"}
    ]}
  ]
}
